Results reported in ChEMBL document CHEMBL1201862, “PubChem BioAssay data set” (2004).
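The compound was tested at five concentrations on cells cultured in 96-well plates, with a 48-hour exposure period. GI50 marks 50% less growth.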 Calls of active or inactive are those of the source. Cut-off read from the data, not from the text of the source: active = GI50 up to about 1.1 µM and inactive = higher.

Legend:
Assay in all cases: DTP human tumour cell line panel, 48 h
CCRF-CEM = tested on: CCRF-CEM
A498 = tested on: A498
IGROV-1 = tested on: IGROV-1
M19-MEL = tested on: M19-MEL
HCT-15 = tested on: HCT-15
UO-31 = tested on: UO-31
HOP-92 = tested on: HOP-92
KM-20L2 = tested on: KM-20L2
SNB-19 = tested on: SNB-19
NCI-H226 = tested on: NCI-H226
COLO 205 = tested on: COLO 205
SK-MEL-2 = tested on: SK-MEL-2
HCC 2998 = tested on: HCC 2998
RXF 393 = tested on: RXF 393
DMS-114 = tested on: DMS-114
EKVX = tested on: EKVX
M14 = tested on: M14
PC-3 = tested on: PC-3
MDA-N = tested on: MDA-N
Hs-578T = tested on: Hs-578T

COc1nc(O)c(N)c(NC2OC(CO)C(O)C(O)C2O)n1 (configuration not stated)
GI50 (CCRF-CEM): > 57.8 µM (inactive) | GI50 (A498): > 100 µM (inactive) | GI50 (IGROV-1): > 100 µM (inactive) | GI50 (M19-MEL): > 100 µM (inactive) | GI50 (HCT-15): > 100 µM | GI50 (UO-31): > 100 µM (inactive) | GI50 (HOP-92): > 100 µM (inactive) | GI50 (KM-20L2): > 100 µM (inactive) | GI50 (SNB-19): > 100 µM (inactive) | GI50 (NCI-H226): > 31.6 µM (inactive) | GI50 (COLO 205): > 100 µM (inactive) | GI50 (SK-MEL-2): > 100 µM (inactive) | GI50 (HCC 2998): > 100 µM (inactive) | GI50 (RXF 393): > 100 µM (inactive) | GI50 (DMS-114): > 100 µM (inactive) | GI50 (EKVX): > 100 µM (inactive)

CCC(C(C)N1CC(=O)NC(=O)C1)N1CC(=O)NC(=O)C1 (configuration not stated)
GI50 (CCRF-CEM): 4.93 µM (inactive) | GI50 (A498): > 100 µM (inactive) | GI50 (IGROV-1): > 100 µM (inactive) | GI50 (M19-MEL): 41.4 µM (inactive) | GI50 (HCT-15): > 49.7 µM | GI50 (UO-31): > 37.5 µM (inactive) | GI50 (HOP-92): > 100 µM (inactive) | GI50 (KM-20L2): > 69.2 µM (inactive) | GI50 (SNB-19): > 100 µM (inactive) | GI50 (NCI-H226): 16.1 µM (inactive) | GI50 (COLO 205): 0.506 µM (active) | GI50 (SK-MEL-2): > 100 µM (inactive) | GI50 (HCC 2998): > 61.4 µM (inactive) | GI50 (RXF 393): > 100 µM (inactive) | GI50 (DMS-114): 7.01 µM (inactive) | GI50 (EKVX): > 19.7 µM (inactive)

CCCCSCC(NC(=O)/C=C/c1c(C)[nH]c(=O)[nH]c1=O)C(=O)OC (configuration not stated)
GI50 (CCRF-CEM): 20 µM (inactive) | GI50 (A498): 79.6 µM (inactive) | GI50 (IGROV-1): 84.5 µM (inactive) | GI50 (M19-MEL): 38.4 µM (inactive) | GI50 (HCT-15): 148 µM | GI50 (UO-31): 49.4 µM (inactive) | GI50 (HOP-92): 36.1 µM (inactive) | GI50 (KM-20L2): 61.7 µM (inactive) | GI50 (SNB-19): 29 µM (inactive) | GI50 (NCI-H226): 43.9 µM (inactive) | GI50 (COLO 205): 36.5 µM (inactive) | GI50 (SK-MEL-2): 25.2 µM (inactive) | GI50 (HCC 2998): 29 µM (inactive) | GI50 (RXF 393): 56.5 µM (inactive) | GI50 (DMS-114): 30.1 µM (inactive) | GI50 (EKVX): 34.2 µM (inactive)

CCOC(=O)C1=C(Nc2ccccc2)OC/C1=N\NC(=O)Cc1ccccc1
GI50 (M14): > 50 µM (inactive) | GI50 (CCRF-CEM): > 50 µM (inactive) | GI50 (A498): > 50 µM (inactive) | GI50 (IGROV-1): > 50 µM (inactive) | GI50 (M19-MEL): > 50 µM (inactive) | GI50 (UO-31): > 50 µM (inactive) | GI50 (HOP-92): > 50 µM (inactive) | GI50 (KM-20L2): > 50 µM (inactive) | GI50 (SNB-19): > 50 µM (inactive) | GI50 (NCI-H226): > 50 µM (inactive) | GI50 (COLO 205): > 50 µM (inactive) | GI50 (SK-MEL-2): > 50 µM (inactive) | GI50 (HCC 2998): > 50 µM (inactive) | GI50 (RXF 393): > 50 µM (inactive) | GI50 (DMS-114): > 50 µM (inactive) | GI50 (EKVX): > 50 µM (inactive)

CSc1nc(NC(=O)O)c(N(C(C)=O)C(=O)O)c(=O)n1C
GI50 (M14): > 100 µM (inactive) | GI50 (CCRF-CEM): > 100 µM (inactive) | GI50 (A498): > 100 µM (inactive) | GI50 (IGROV-1): > 100 µM (inactive) | GI50 (M19-MEL): > 100 µM (inactive) | GI50 (HCT-15): > 100 µM | GI50 (UO-31): > 100 µM (inactive) | GI50 (HOP-92): > 100 µM (inactive) | GI50 (KM-20L2): > 100 µM (inactive) | GI50 (SNB-19): > 100 µM (inactive) | GI50 (NCI-H226): > 100 µM (inactive) | GI50 (COLO 205): > 100 µM (inactive) | GI50 (SK-MEL-2): > 100 µM (inactive) | GI50 (HCC 2998): > 100 µM (inactive) | GI50 (RXF 393): > 100 µM (inactive) | GI50 (DMS-114): > 100 µM (inactive) | GI50 (EKVX): > 100 µM (inactive)

Cc1cc(C(C)(C)C)cc(Cc2cc(C(C)(C)C)cc(Cc3cc(C(C)(C)C)cc(C)c3O)c2O)c1O
GI50 (M14): 7.26 µM (inactive) | GI50 (CCRF-CEM): 3.04 µM (inactive) | GI50 (A498): 19.5 µM (inactive) | GI50 (IGROV-1): 11.3 µM (inactive) | GI50 (M19-MEL): 3.77 µM (inactive) | GI50 (HCT-15): 11.9 µM | GI50 (UO-31): 13.2 µM (inactive) | GI50 (HOP-92): 2.94 µM (inactive) | GI50 (KM-20L2): 16.1 µM (inactive) | GI50 (SNB-19): 13 µM (inactive) | GI50 (NCI-H226): 12.1 µM (inactive) | GI50 (COLO 205): 16.2 µM (inactive) | GI50 (SK-MEL-2): 10.4 µM (inactive) | GI50 (RXF 393): 2.19 µM (inactive) | GI50 (DMS-114): 4.21 µM (inactive) | GI50 (EKVX): 10.8 µM (inactive)

CCCCN(CCCC)C(=O)C(=O)C(C#N)c1ccc(C)cc1 (configuration not stated)
GI50 (M14): > 100 µM (inactive) | GI50 (CCRF-CEM): > 100 µM (inactive) | GI50 (A498): > 100 µM (inactive) | GI50 (IGROV-1): > 100 µM (inactive) | GI50 (M19-MEL): > 100 µM (inactive) | GI50 (HCT-15): > 100 µM | GI50 (UO-31): > 100 µM (inactive) | GI50 (HOP-92): > 100 µM (inactive) | GI50 (KM-20L2): > 100 µM (inactive) | GI50 (SNB-19): > 100 µM (inactive) | GI50 (NCI-H226): > 100 µM (inactive) | GI50 (SK-MEL-2): > 100 µM (inactive) | GI50 (HCC 2998): > 100 µM (inactive) | GI50 (RXF 393): > 100 µM (inactive) | GI50 (DMS-114): > 100 µM (inactive) | GI50 (EKVX): > 100 µM (inactive)

CC1(C)c2ccccc2C(C)(C)C(C(=O)Nc2ccccc2)C1C(=O)O (configuration not stated)
GI50 (M14): > 100 µM (inactive) | GI50 (CCRF-CEM): > 100 µM (inactive) | GI50 (A498): > 100 µM (inactive) | GI50 (M19-MEL): > 100 µM (inactive) | GI50 (UO-31): > 100 µM (inactive) | GI50 (HOP-92): > 100 µM (inactive) | GI50 (KM-20L2): > 100 µM (inactive) | GI50 (SNB-19): > 100 µM (inactive) | GI50 (NCI-H226): > 100 µM (inactive) | GI50 (COLO 205): > 100 µM (inactive) | GI50 (SK-MEL-2): > 100 µM (inactive) | GI50 (HCC 2998): > 100 µM (inactive) | GI50 (RXF 393): > 100 µM (inactive) | GI50 (DMS-114): 91.6 µM (inactive) | GI50 (EKVX): > 100 µM (inactive)

CCCc1c(C(=O)OCC)[nH]c(-c2ccc(-c3[nH]c(C(=O)OCC)c(CCC)c3C(=O)OCC)o2)c1C(=O)OCC
GI50 (M14): > 100 µM (inactive) | GI50 (CCRF-CEM): > 100 µM (inactive) | GI50 (A498): > 100 µM (inactive) | GI50 (IGROV-1): > 100 µM (inactive) | GI50 (M19-MEL): > 100 µM (inactive) | GI50 (HCT-15): > 100 µM | GI50 (UO-31): > 100 µM (inactive) | GI50 (HOP-92): > 100 µM (inactive) | GI50 (KM-20L2): > 100 µM (inactive) | GI50 (SNB-19): > 100 µM (inactive) | GI50 (NCI-H226): > 100 µM (inactive) | GI50 (COLO 205): > 100 µM (inactive) | GI50 (SK-MEL-2): > 100 µM (inactive) | GI50 (HCC 2998): > 100 µM (inactive) | GI50 (RXF 393): > 100 µM (inactive) | GI50 (DMS-114): > 100 µM (inactive) | GI50 (EKVX): > 100 µM (inactive)

COc1cc(/C=C/C(=O)Oc2ccc(NC(C)=O)cc2)ccc1C(=O)OCc1ccccc1
GI50 (M14): > 100 µM (inactive) | GI50 (CCRF-CEM): 64.3 µM (inactive) | GI50 (PC-3): > 100 µM (inactive) | GI50 (A498): 60.3 µM (inactive) | GI50 (MDA-N): > 100 µM (inactive) | GI50 (IGROV-1): 67.5 µM (inactive) | GI50 (M19-MEL): > 100 µM (inactive) | GI50 (HCT-15): > 100 µM | GI50 (UO-31): > 100 µM (inactive) | GI50 (HOP-92): 74.3 µM (inactive) | GI50 (KM-20L2): > 100 µM (inactive) | GI50 (SNB-19): 52.7 µM (inactive) | GI50 (NCI-H226): > 100 µM (inactive) | GI50 (COLO 205): > 100 µM (inactive) | GI50 (Hs-578T): > 100 µM (inactive) | GI50 (SK-MEL-2): 53.1 µM (inactive) | GI50 (HCC 2998): > 100 µM (inactive) | GI50 (RXF 393): 28.8 µM (inactive) | GI50 (DMS-114): > 90.8 µM (inactive) | GI50 (EKVX): > 100 µM (inactive)

NC(=O)OCC1=C(COC(N)=O)C(=O)c2c(O)ccc(O)c2C1=O
GI50 (M14): > 100 µM (inactive) | GI50 (CCRF-CEM): 44.7 µM (inactive) | GI50 (A498): > 100 µM (inactive) | GI50 (IGROV-1): > 100 µM (inactive) | GI50 (M19-MEL): 3.46 µM (inactive) | GI50 (HCT-15): > 100 µM | GI50 (UO-31): > 100 µM (inactive) | GI50 (HOP-92): > 100 µM (inactive) | GI50 (KM-20L2): > 100 µM (inactive) | GI50 (NCI-H226): > 100 µM (inactive) | GI50 (COLO 205): 58.7 µM (inactive) | GI50 (SK-MEL-2): 78.7 µM (inactive) | GI50 (HCC 2998): > 100 µM (inactive) | GI50 (DMS-114): > 100 µM (inactive) | GI50 (EKVX): > 100 µM (inactive)

[O-][n+]1ccccc1S [PYRITHIONE ZINC]
GI50 (M14): 1.25 µM (inactive) | GI50 (CCRF-CEM): 0.0331 µM (active) | GI50 (A498): 0.796 µM (active) | GI50 (IGROV-1): 1.14 µM (inactive) | GI50 (M19-MEL): 0.562 µM (active) | GI50 (HCT-15): 0.577 µM | GI50 (UO-31): 2.43 µM (inactive) | GI50 (HOP-92): 3.24 µM (inactive) | GI50 (KM-20L2): 1.04 µM (active) | GI50 (SNB-19): 5.2 µM (inactive) | GI50 (NCI-H226): 10.2 µM (inactive) | GI50 (COLO 205): 0.625 µM (active) | GI50 (SK-MEL-2): 1.49 µM (inactive) | GI50 (HCC 2998): 0.452 µM (active) | GI50 (RXF 393): 0.135 µM (active) | GI50 (DMS-114): 0.419 µM (active) | GI50 (EKVX): 2.98 µM (inactive)
